Results reported in patent US11192865B2, “Benzosulfonyl compounds” (Vivace Therapeutics, Inc., priority 2017, dated 2021).

test system: 8XTBD luciferase reporter; test: YAP Reporter Assay; type: cell-based; details: Homo sapiens, HEK-293T; HEK293T cells stably transfected with 8XTBD luciferase reporter and pRLTK; 24-hr incubation; starting from 3 μM, 1:3 dilution, 10 points; read-out: Firefly Luciferase IC50
Protocol: HEK293T cells stably transfected with 8XTBD luciferase reporter and pRLTK in 384-well plates were treated with the test compounds, starting from 3 μM (final concentration in assay plate), 1:3 dilution, and 10 points in quadruplicates. Post 24-hr incubation with compounds at 37° C. and 5% CO2, cells were lysed and 8XTBD-driven firefly luciferase and control TK-driven renilla luciferase activities were measured using Promega Dual-Luciferase Reporter Assay System.
Reagents: The reagents used for this study are: DMEM: Invitrogen #11960077, Dual-Glo Luciferase Assay System: Promega-E2980, Puromycin Dihydrochloride: Invitrogen-A1113803, 384-well plate: PerkinElmer-6007480, L-GLUTAMINE: Invitrogen-25030164, Hygromycin B: Invitrogen-10687010, and Penicillin-Streptomycin: Merk-TMS-AB2-C
Media: The media used for this assay were: Culture Medium: DMEM+1 ug/mL puromycin+200 ug/mL hygromycin (with 10% FBS+1 mM L-glutamine); and Assay Medium: DMEM (with 10% FBS+1 mM L-glutamine+1×P/S).
Cell Plating: The appropriate media was warmed at 37° C. by water bath: Culture Medium, Assay Medium, 1* D-PBS, 0.05% trypsin-EDTA. The cells were trypsinized after removing all media, then washed with 1* sterile D-PBS and then with 2 ml 0.05% trypsin-EDTA. The cells were then incubated at RT for one minute. Then 10 ml/75 cm2 flask Assay Medium was added to each flask. Using a 10 ml pipette, the cells were then gently resuspended in the media, until the clumps completely disappeared. The cells were then transferred into 50 ml centrifuge tubes and were centrifuged at 800 rpm for 5 mins. The medium was removed and the cells were resuspended with Assay Medium. An aliquot of cells was used to count the cell density (cells/ml). The cell suspension was then diluted with Assay Medium to a concentration of 6×10^4 cells/ml. 50 ul cells suspension was then plated to 384-well plate (PerkinElmer-6007480), 3×10^3 cells/well and the cells were incubated in an incubator at 37° C., 5% CO2.
Compound Treatment: In the afternoon (incubation of the plate with 3-4 hrs), the test compounds were added by Echo, starting from 3 uM (final concentration in the assay plate), 1:3 dilution, 10 points, quadruplicates. The plate was placed at 37° C., 5% CO2 incubator for 24 hrs.
Detection: The Dual-Glo Luciferase Reagent was prepared by transferring the contents of one bottle of Dual-Glo Luciferase Buffer to one bottle of Dual-Glo Luciferase Substrate to create the Dual-Glo Luciferase Reagent. Mixing was performed by inversion until the substrate was thoroughly dissolved. After mixing, the reagent was aliquoted into 15 ml tubes. In the afternoon (24 hrs post compound treatment), the DMEM+ medium in the 384 well plates were aspirated by Microplate Washer.
Measuring firefly luciferase activity: 20 ul Dual-Glo Luciferase Reagent was added to the 384-well plates. The plates were protected from light to prevent interference with the assay. The plates were shaken for 1 min followed centrifuging plates at 1000 rpm for 30 seconds. After waiting at least 10 minutes, the firefly luminescence was measured by Envision.
Measuring renilla luciferase activity: 20 ul Stop-Glo Reagent was added to the 384-well plates. The plates were shaken for 1 min and then centrifuged at 1000 rpm for 30 seconds. After waiting at least 10 minutes, the renilla luminescence was measured by Envision.
Compound IC50 and maximum inhibition on the firefly luciferase and renilla luciferase activities were reported separately.

SMILES	IC50 [nM]
CNS(=O)(=O)c1ccc(NC2CCCCC2)c(-c2cc(N(C)C)ccn2)c1 [Compound 87, 4-(cyclohexylamino)-3-(4-(dimethylamino)pyridin-2-yl)-N-methylbenzenesulfonamide]	≤ 100
CNS(=O)(=O)c1ccc(NC2CCCCC2)c(-c2ccncc2)c1 [Compound 65, 4-(cyclohexylamino)-N-methyl-3-(pyridin-4-yl)benzenesulfonamide]	> 3000
CNS(=O)(=O)c1ccc(NC2CCCCC2)c(-c2n[nH]c(C)n2)c1 [Compound 66, 4-(cyclohexylamino)-N-methyl-3-(5-methyl-1H-1,2,4-triazol-3-yl)benzenesulfonamide]	100 to 1000
CNS(=O)(=O)c1ccc(NC2CCCCC2)c(-c2nnn(-c3ccc(F)cc3)n2)c1 [Compound 16, 4-(cyclohexylamino)-3-(2-(4-fluorophenyl)-2H-tetrazol-5-yl)-N-methylbenzenesulfonamide]	100 to 1000
CNS(=O)(=O)c1ccc(NC2CCCCC2)c(-c2nnn(C3CCN(c4ccccc4)C3)n2)c1 (stereo not shown) [Compound 37, 4-(cyclohexylamino)-N-methyl-3-(2-(1-phenylpyrrolidin-3-yl)-2H-tetrazol-5-yl)benzenesulfonamide]	> 3000
CNS(=O)(=O)c1ccc(NC2CCCCC2)c(-c2ncccc2OC)c1 [Compound 80, 4-(cyclohexylamino)-3-(3-methoxypyridin-2-yl)-N-methylbenzenesulfonamide]	1000 to 3000
CS(=O)(=O)c1ccc(NC2CCCCC2)c(-c2nn[nH]n2)c1 [Compound 4, N-cyclohexyl-4-(methylsulfonyl)-2-(2H-tetrazol-5-yl)aniline]	> 3000
CS(=O)(=O)c1ccc(NC2CCCCC2)c(-n2cncn2)c1 [Compound 12, N-cyclohexyl-4-(methylsulfonyl)-2-(1H-1,2,4-triazol-1-yl)aniline]	> 3000
CNS(=O)(=O)c1ccc(NC2CCCCC2)c(-c2nnn(Cc3cccnc3)n2)c1 [Compound 29, 4-(cyclohexylamino)-N-methyl-3-(2-(pyridin-3-ylmethyl)-2H-tetrazol-5-yl)benzenesulfonamide]	≤ 100
CS(=O)(=O)c1ccc(NC2CCCCC2)c(-n2cccn2)c1 [Compound 10, N-cyclohexyl-4-(methylsulfonyl)-2-(1H-pyrazol-1-yl)aniline]	1000 to 3000
CNS(=O)(=O)c1ccc(NC2CCCCC2)c(-c2nnn(Cc3ccc(F)cc3)n2)c1 [Compound 41, 4-(cyclohexylamino)-3-(2-(4-fluorobenzyl)-2H-tetrazol-5-yl)-N-methylbenzenesulfonamide]	100 to 1000
CNS(=O)(=O)c1ccc(NC2CCCCC2)c(-c2nnn(C3CCN(C(C)=O)C3)n2)c1 (stereo not shown) [Compound 42, 3-(2-(1-acetylpyrrolidin-3-yl)-2H-tetrazol-5-yl)-4-(cyclohexylamino)-N-methylbenzenesulfonamide]	100 to 1000
CCn1nnc(-c2cc(S(=O)(=O)NC)ccc2NC2CCCCC2)n1 [Compound 14, 4-(cyclohexylamino)-3-(2-ethyl-2H-tetrazol-5-yl)-N-methylbenzenesulfonamide]	≤ 100
CNS(=O)(=O)c1ccc(NC2CCCCC2)c(-c2nnn(C3CCCN(S(C)(=O)=O)C3)n2)c1 (stereo not shown) [Compound 62, 4-(cyclohexylamino)-N-methyl-3-(2-(1-(methylsulfonyl)piperidin-3-yl)-2H-tetrazol-5-yl)benzenesulfonamide]	> 3000
CNc1ccnc(-c2cc(S(=O)(=O)NC)ccc2NC2CCCCC2)c1 [Compound 88, 4-(cyclohexylamino)-N-methyl-3-(4-(methylamino)pyridin-2-yl)benzenesulfonamide]	≤ 100
CS(=O)(=O)c1ccc(NC2CCCCC2)c(-n2nccn2)c1 [Compound 13, N-cyclohexyl-4-(methylsulfonyl)-2-(2H-1,2,3-triazol-2-yl)aniline]	100 to 1000

The next lines start with the values.

IC50 [nM]	SMILES
100 to 1000	CNS(=O)(=O)c1ccc(Nc2cc(F)cc(F)c2)c(-c2nnn(C)n2)c1 [Compound 108, 4-((3,5-difluorophenyl)amino)-N-methyl-3-(2-methyl-2H-tetrazol-5-yl)benzenesulfonamide]
≤ 100	CNS(=O)(=O)c1ccc(Nc2cc(Cl)cc(Cl)c2)c(-c2cn(C)cn2)c1 [Compound 142, 4-(3,5-dichloroanilino)-N-methyl-3-(1-methylimidazol-4-yl)benzenesulfonamide]
> 3000	CNS(=O)(=O)c1ccc(Nc2cccc(F)c2F)c(-c2nnnn2C)c1 [Compound 106, 4-((2,3-difluorophenyl)amino)-N-methyl-3-(1-methyl-1H-tetrazol-5-yl)benzenesulfonamide]
100 to 1000	CNS(=O)(=O)c1ccc(Nc2cc(C(F)(F)F)cc(C(F)(F)F)c2)c(-c2cn(C)cn2)c1 [Compound 146, 4-[3,5-Bis(trifluoromethyl)anilino]-N-methyl-3-(1-methylimidazol-4-yl)benzenesulfonamide]
≤ 100	CNS(=O)(=O)c1ccc(Nc2ccccc2)c(-c2nnn(C)n2)c1 [Compound 90, N-methyl-3-(2-methyl-2H-tetrazol-5-yl)-4-(phenylamino)benzenesulfonamide]
> 3000	CNS(=O)(=O)c1ccc(Nc2cc(F)cc(F)c2)c(-c2nnnn2C)c1 [Compound 107, 4-((3,5-difluorophenyl)amino)-N-methyl-3-(1-methyl-1H-tetrazol-5-yl)benzenesulfonamide]
≤ 100	CNS(=O)(=O)c1ccc(Nc2cccc(OC(F)(F)F)c2)c(-c2nnn(C)n2)c1 [Compound 94, N-methyl-3-(2-methyl-2H-tetrazol-5-yl)-4-((3-(trifluoromethoxy)phenyl)amino)benzenesulfonamide]
100 to 1000	CNS(=O)(=O)c1ccc(Nc2ccc(C(F)(F)F)cc2)c(-c2nnn(CCOCc3ccccc3)n2)c1 [Compound 115, 3-(2-(2-(benzyloxy)ethyl)-2H-tetrazol-5-yl)-N-methyl-4-((4-(trifluoromethyl)phenyl)amino)benzenesulfonamide]
≤ 100	CCn1cnc(-c2cc(S(=O)(=O)NC)ccc2NC2CCCCC2)c1 [Compound 112, 4-(cyclohexylamino)-3-(1-ethyl-1H-imidazol-4-yl)-N-methylbenzenesulfonamide]
1000 to 3000	CNS(=O)(=O)c1ccc(Nc2cccc(C(F)(F)F)c2)c(-c2ccnc(N)c2)c1 [Compound 152, 3-(2-Aminopyridin-4-yl)-N-methyl-4-((3-(trifluoromethyl)phenyl)amino) benzenesulfonamide]
≤ 100	CNS(=O)(=O)c1ccc(Nc2ccc(C(F)(F)F)cc2)c(-c2nnn(C)n2)c1 [Compound 95, N-methyl-3-(2-methyl-2H-tetrazol-5-yl)-4-((4-(trifluoromethyl)phenyl)amino)benzenesulfonamide]
> 3000	CNS(=O)(=O)c1ccc(Nc2ccc(OC(F)(F)F)cc2)c(-c2nnnn2C)c1 [Compound 99, N-methyl-3-(1-methyl-1H-tetrazol-5-yl)-4-((4-(trifluoromethoxy)phenyl)amino)benzenesulfonamide]
≤ 100	CNS(=O)(=O)c1ccc(NC2CCCCC2)c(-c2cn(C(C)C)cn2)c1 [Compound 113, 4-(cyclohexylamino)-3-(1-isopropyl-1H-imidazol-4-yl)-N-methylbenzenesulfonamide]
≤ 100	CNS(=O)(=O)c1ccc(N[C@H]2CC[C@H](C(F)(F)F)CC2)c(-c2cn(C)cn2)c1 [Compound 151, N-methyl-3-(1-methyl-1H-imidazol-4-yl)-4-(((1r,4r)-4-(trifluoromethyl)cyclohexyl)amino) benzenesulfonamide]
> 3000	CNS(=O)(=O)c1ccc(Nc2ccc(C(F)(F)F)cc2)c(-c2nnnn2C)c1 [Compound 96, N-methyl-3-(1-methyl-1H-tetrazol-5-yl)-4-((4-(trifluoromethyl)phenyl)amino)benzenesulfonamide]
